{
  "source": "patent US20240052003A1",
  "about": "“COMPOSITIONS COMPRISING PEDF-DERIVED SHORT PEPTIDES (PDSP) AND USES THEREOF” (BRIM Biotechnology, Inc., priority 2019, published 2024)",
  "origin": "cited, not measured here",
  "test_system": "eye",
  "details": "ocular application",
  "data": [
    {"smiles": "NC(=O)c1cccnc1", "note": "[nicotinamide]", "values": [
      {"measurement": "Eye irritation", "result": "may cause eye irritation"}
    ]}
  ]
}
